What was measured:
[1] = molecular target: 5-hydroxytryptamine receptor 2B (Homo sapiens, UniProt P41595)
Description: Inhibition of human 5-HT2B receptor assessed as inhibition constant by microbeta scintillation counting method

[2] = molecular target: Kappa-type opioid receptor (Homo sapiens, UniProt P41145); assay: Inhibition of human KOR assessed as inhibition constant by microbeta scintillation counting method
[3] = Cytotoxicity against human MRC5 cells assessed as reduction in cell viability measured after 3 days by resazurin dye based fluorimetric analysis

Chain of 5-hydroxytryptamine receptor 2B (P41595 whole entry): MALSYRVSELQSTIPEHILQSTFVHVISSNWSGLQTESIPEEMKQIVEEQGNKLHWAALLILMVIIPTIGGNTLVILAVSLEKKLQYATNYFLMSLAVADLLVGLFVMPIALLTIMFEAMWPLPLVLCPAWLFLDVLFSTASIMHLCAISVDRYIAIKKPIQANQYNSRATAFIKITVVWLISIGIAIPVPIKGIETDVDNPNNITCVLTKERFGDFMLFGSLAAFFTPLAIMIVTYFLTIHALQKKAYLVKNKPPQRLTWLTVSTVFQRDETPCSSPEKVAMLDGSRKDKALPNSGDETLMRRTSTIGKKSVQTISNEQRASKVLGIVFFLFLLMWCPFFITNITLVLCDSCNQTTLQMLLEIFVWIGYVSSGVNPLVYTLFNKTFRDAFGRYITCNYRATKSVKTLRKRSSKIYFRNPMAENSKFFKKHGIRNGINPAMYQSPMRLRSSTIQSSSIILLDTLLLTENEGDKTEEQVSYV
Chain of Kappa-type opioid receptor (P41145 whole entry): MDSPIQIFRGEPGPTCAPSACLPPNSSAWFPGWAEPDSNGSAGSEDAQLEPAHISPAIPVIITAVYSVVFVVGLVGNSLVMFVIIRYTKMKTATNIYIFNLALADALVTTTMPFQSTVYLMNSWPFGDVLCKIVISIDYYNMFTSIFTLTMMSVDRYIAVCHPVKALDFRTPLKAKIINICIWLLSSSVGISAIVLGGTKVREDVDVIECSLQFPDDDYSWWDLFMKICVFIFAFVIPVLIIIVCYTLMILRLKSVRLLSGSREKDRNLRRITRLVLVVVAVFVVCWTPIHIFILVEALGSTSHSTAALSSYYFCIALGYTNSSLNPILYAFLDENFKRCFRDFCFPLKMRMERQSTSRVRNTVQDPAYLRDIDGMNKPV

SMILES	Ki [1]	Ki [2]	CC50 at 72 h [3]
OC[C@H]1O[C@@H](n2cc(C(F)(F)F)c3c(NCc4ccccc4Cl)ncnc32)[C@H](O)[C@@H]1O	550 nM	–	–
C[C@H](Nc1ncnc2c1c(C(F)(F)F)cn2[C@@H]1O[C@H](CO)[C@@H](O)[C@H]1O)c1ccccc1	–	1900 nM	–
OC[C@H]1O[C@@H](n2cc(C(F)(F)F)c3c(NCc4ccccc4F)ncnc32)[C@H](O)[C@@H]1O	1200 nM	–	> 64000 nM
OC[C@H]1O[C@@H](n2cc(C(F)(F)F)c3c(NCc4ccccc4)ncnc32)[C@H](O)[C@@H]1O	500 nM	1800 nM	–
C[C@@H](Nc1ncnc2c1c(C(F)(F)F)cn2[C@@H]1O[C@H](CO)[C@@H](O)[C@H]1O)c1ccccc1	710 nM	–	–

More lines, main results first:

Ki [1]	Ki [2]	SMILES	CC50 at 72 h [3]
830 nM	–	OC[C@H]1O[C@@H](n2cc(C(F)(F)F)c3c(NCc4ccc(Cl)cc4)ncnc32)[C@H](O)[C@@H]1O	–
620 nM	–	OC[C@H]1O[C@@H](n2cc(C(F)(F)F)c3c(NCc4cccc(Cl)c4)ncnc32)[C@H](O)[C@@H]1O	> 64000 nM

From ChEMBL document CHEMBL5357012, “Dual N6/C7-Substituted 7-Deazapurine and Tricyclic Ribonucleosides with Affinity for G Protein-Coupled Receptors” (ACS Med Chem Lett, 2024)
